Series [1] addresses T1, GPR40 (Homo sapiens, UniProt O14842).
T1 construct: host or cells: HEK293 (ChemiBrite cell line)
As to the kind of experiment: Promoter-luciferase assay to measure GPR40 activation (HEK293 cells stably transfected with GPR40 cDNA). It counts as cell-based. Conditions: HEK293 cells stably transfected with GPR40, 5xSRE-luciferase. The method, then:
GPR40 activation was measured in HEK293 cells stably transfected with GPR40 cDNA (ChemiBrite cell lines from Millipore, US). These cells were transiently transfected with a pGL2 (Promega Inc.) plasmid having a 5×SRE sequence, cloned 5′ of a luciferase gene along with a β-galactosidase plasmid as normalizing control. Briefly, 35000 cells/well were seeded in a 96 well plates. After overnight incubation at 37° C., the cells were washed with PBS and transfected with the 5×-SRE-Luciferase plasmid and the β-galactosidase plasmid. 6 h post transfection, media was removed and replaced with fresh media with different concentration of drugs and incubated for 16 more hours. The cells were then lysed in 50 μL of Glo-Lysis buffer (Promega) for 30 min at room temperature. The cells were then centrifuged and lysates were collected. Luciferase activity was measured by adding 100 μL of luciferase substrate (Promega) in 20 μL of lysate and measuring the luminescence in luminometer. The […] activity was also measured by adding 20 μL of lysates with 20 μL of β-galactosidase buffer (Promega) and monitoring the absorbance at 415 nm. Luciferase values were divided by β-galactosidase values to normalize transfection efficiency (Table 2)

For series [2], the system named is n-STZ rat model. The series can be described thus: Oral glucose tolerance test in n-STZ rat model. In kind it is in vivo, Wistar rat. Conditions: for % improvement in AUC glucose vs. control: n-STZ rat. The procedure:
Primary Screening Protocol for GRP40 agonist test compounds in n-STZ rat model
Wistar rat pups of 1-2 day old injected with Streptozotocin (STZ) at 120 mg/kg dose by intraperitoneal route. All pups allowed grow normally and at the age of 12-14 week they were screen for glucose intolerance by performing the oral glucose tolerance test by tail clip method using glucometer. Animals showing glucose intolerance were selected for evaluation of test compound. Three to seven days of rest period animals were kept on overnight fasting. […] Animals were administered with test compound and then 15-60 min after the compound administration “O” min blood glucose levels were measured and immediately glucose load at 2 g/kg was administered orally. Blood glucose levels were measured at 30, 60 and 120 min after glucose load using by tail clip method using glucometer. Blood was also collected at 10 min after glucose load for measurement of insulin levels. Glucose area under the curve (AUC) was calculated using Graph Pad Prism software and % reduction in AUC-glucose vs vehicle treated control was calculated (Table 3).

A short description of series [3]: Pharmacokinetics in rats. Conditions: rat, in vivo; for MRT: read-out: Mean residence time.
Setting [4] is: read-out: EC50 in Luciferase assay.

Structures can show the parent of a compound that is named as a salt. Where two headings read alike, the source gives them in different places.

22 compounds from patent US10011609B2, “Heterocyclic compounds” (CADILA HEALTHCARE LIMITED, priority 2013, dated 2018) can be followed below.

T1 sequence (O14842 whole entry, species assumed): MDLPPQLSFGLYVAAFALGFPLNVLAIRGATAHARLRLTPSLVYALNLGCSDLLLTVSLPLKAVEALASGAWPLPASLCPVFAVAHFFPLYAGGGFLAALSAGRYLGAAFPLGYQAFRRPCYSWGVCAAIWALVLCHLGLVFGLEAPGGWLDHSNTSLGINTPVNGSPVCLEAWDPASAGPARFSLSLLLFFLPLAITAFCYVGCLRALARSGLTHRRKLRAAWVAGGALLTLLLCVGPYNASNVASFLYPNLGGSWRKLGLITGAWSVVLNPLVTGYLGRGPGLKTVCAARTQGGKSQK

For orientation: EC50 means the midpoint of the concentration-response curve. With `CC#C[C@@H](CC(=O)O)c1ccc(OCc2cccc(CN3CCc4nc(C)sc4C3)c2)cc1` [Compound 10, (S)-3-(4-((3-((2-methyl-6,7-dihydrothiazolo[5,4-c]pyridin-5(4H)-yl)methyl)benzyl)oxy)phenyl)hex-4-ynoic acid], the EC50 in series [1] (setting [4]) came to 16.9 nM. For the same compound, the “% improvement in AUC glucose vs. control” value in series [2] (0.1 mg/Kg per oral) is 21.1%; in series [2] (1 mg/Kg per oral), 35.7%; in series [2] (10 mg/Kg per oral), 45.0%.

As usually defined, the ED50 is the midpoint of the dose-response relation. Low values mean greater potency, high ones weaker potency. As a reminder, the AUC(0-t) is exposure summed from dosing to a finite time, without extrapolation to infinity. High values mean high exposure, low ones low exposure. Broadly, the clearance is the rate of elimination divided by the concentration. A higher clearance goes with a high capacity for elimination. Usually Cmax stands for the maximum level reached in the sampled fluid or tissue. The term Tmax denotes the time from dosing to the highest level. By bioavailability is commonly meant dose-corrected exposure relative to a reference, in per cent. Lower therefore signals poor availability. In the case of `CC#C[C@@H](CC(=O)[O][Ca][O]C(=O)C[C@H](C#CC)c1ccc(OCc2cccc(CN3CCc4oc(C5CC5)nc4C3)c2)cc1)c1ccc(OCc2cccc(CN3CCc4oc(C5CC5)nc4C3)c2)cc1` [Compound 64, Calcium (S)-3-(4-((3-((2-cyclopropyl-6,7-dihydrooxazolo[4,5-c]pyridin-5(4H)-yl)methyl)benzyl)oxy)phenyl)hex-4-ynoate], the EC50 in series [1] (EC50 in Luciferase assay) worked out at 1.2 nM. Besides, the “% improvement in AUC glucose vs. control” value in series [2] (1 mg/Kg per oral) was found to be 46%. In addition, the “% improvement in AUC glucose vs. control” value in series [2] (10 mg/Kg per oral) is reported as 47%. The same compound displayed an ED50 in series [2] (po, n-STZ rat OGTT model) of 0.09 mg/kg. In series [3] (iv 1 mg/Kg), the AUC(0-t) is 56100 ± 4350 ng·h/mL, the C0 stood at 10200 ± 1540 ng/mL, the clearance was 0.27 ± 0.03 mL/min/kg and the MRT was 10.1 ± 1.36 h. For the same compound, the half-life in series [3] (iv 1 mg/Kg, read-out: T1/2, iv (converted)) is 466 ± 64.2 min. Also, the Vd in series [3] (iv 1 mg/Kg, read-out: Vss) turned out to be 0.16 ± 0.01 L/kg. In addition, in series [3] (po 3 mg/Kg), the peak concentration (Cmax) came to 8060 ± 2190 ng/mL, the Tmax amounted to 2 h and the MRT is 6.59 ± 0.93 h. In series [3] (po 3 mg/Kg vs iv 1 mg/Kg), the bioavailability came to 45%. Further, the half-life in series [3] (po 3 mg/Kg, read-out: T1/2, po (converted)) was 271 ± 36.6 min.

With `CC#C[C@@H](CC(=O)O)c1ccc(OCc2cccc(CN3CCc4sc([N+](=O)[O-])cc4C3)c2)cc1` [Compound 65, (S)-3-(4-((3-((2-Nitro-6,7-dihydrothieno[3,2-c]pyridin-5(4H)-yl)methyl)benzyl)oxy)phenyl)hex-4-ynoic acid], in series [1] (setting [4]), the EC50 came to 1.6 nM.

`CC#C[C@@H](CC(=O)O)c1ccc(OCc2cccc(CN3CCCc4ccc(OC)cc43)c2)cc1` [Compound 30, 1-(3-((4-((S)-1-carboxypent-3-yn-2-yl)phenoxy)methyl)benzyl)-7-methoxy-1,2,3,4-tetrahydroquinolin-1-ium formate]: the 50% effective concentration (EC50) in series [1] (setting [4]) amounted to 4.5 nM.

On to `CC#C[C@@H](CC(=O)O)c1ccc(OCc2cccc(CN3CCc4sc(NC(C)=O)cc4C3)c2)cc1` [Compound 63, (S)-3-(4-((3-((2-Aacetamido-6,7-dihydrothieno[3,2-c]pyridin-5(4H)-yl)methyl)benzyl)oxy)phenyl)hex-4-ynoic acid], for which the EC50 in series [1] (setting [4]) amounted to 4.4 nM.

In series [1] (EC50 in Luciferase assay), `CC#C[C@@H](CC(=O)[O][Ca][O]C(=O)C[C@H](C#CC)c1ccc(OCc2cccc(CN3CCc4sc(Cl)cc4C3)c2)cc1)c1ccc(OCc2cccc(CN3CCc4sc(Cl)cc4C3)c2)cc1` [Compound 39, Calcium (S)-3-(4-((3-((2-chloro-6,7-dihydrothieno[3,2-c]pyridin-5(4H)-yl)methyl)benzyl)oxy)phenyl)hex-4-ynoate] displayed an EC50 of 1.7 nM.

In the case of `CC#C[C@@H](CC(=O)O)c1ccc(OCc2cccc(CN3CCc4c(ccn4C(=O)OC(C)(C)C)C3)c2)cc1` [Compound 8, (S)-3-(4-((3-((1-(tert-butoxycarbonyl)-6,7-dihydro-1H-pyrrolo[3,2-c]pyridin-5(4H)-yl)methyl)benzyl)oxy)phenyl)hex-4-ynoic acid], the EC50 in series [1] (setting [4]) was found to be 11.8 nM.

`CC#C[C@@H](CC(=O)O)c1ccc(OCc2cccc(CN3CCc4ncncc4C3)c2)cc1` [Compound 21, (S)-3-(4-((3-((7,8-Dihydropyrido[4,3-d]pyrimidin-6(5H)-yl)methyl)benzyl)oxy)phenyl)hex-4-ynoic acid]: in series [1] (setting [4]), the EC50 stood at 2.8 nM.

For the compound `CC#C[C@@H](CC(=O)O)c1ccc(OCc2cccc(CN3CCc4sc(C(=O)N(C)C)cc4C3)c2)cc1` [Compound 47, (S)-3-(4-((3-((2-(dimethylcarbamoyl)-6,7-dihydrothieno[3,2-c]pyridin-5(4H)-yl)methyl)benzyl)oxy)phenyl)hex-4-ynoic acid], in series [1] (setting [4]), the EC50 was determined as 9 nM.

For the compound `CC#C[C@@H](CC(=O)O)c1ccc(OCc2cccc(CN3CCc4nc(OC)ncc4C3)c2)cc1` [Compound 50, (S)-3-(4-((3-((2-Methoxy-7,8-dihydropyrido[4,3-d]pyrimidin-6(5H)-yl)methyl)benzyl)oxy)phenyl)hex-4-ynoic acid], in series [1] (setting [4]), the EC50 amounted to 20.8 nM.

Turning to `CC#C[C@@H](CC(=O)O)c1ccc(OCc2cccc(CN3Cc4ccccc4C3)c2)cc1` [Compound 12, (S)-3-(4-((3-(isoindolin-2-ylmethyl)benzyl)oxy)phenyl)hex-4-ynoic acid trifluoroacetic acid], the EC50 in series [1] (setting [4]) is 5.6 nM.

In the case of `CC#C[C@@H](CC(=O)O)c1ccc(OCc2cccc(CN3CCc4sc(C#N)cc4C3)c2)cc1` [Compound 43, (S)-3-(4-((3-((2-cyano-6,7-dihydrothieno[3,2-c]pyridin-5(4H)-yl)methyl)benzyl)oxy)phenyl)hex-4-ynoic acid], in series [1] (setting [4]), the EC50 is 7.3 nM.

Take `CC#C[C@@H](CC(=O)O)c1ccc(OCc2cccc(CN3CCCC3c3ccccc3)c2)cc1` (stereo partly drawn) [Compound 51, (3S)-3-(4-((3-((2-phenylpyrrolidin-1-yl)methyl)benzyl)oxy)phenyl)hex-4-ynoic acid]: the EC50 in series [1] (setting [4]) worked out at 3 nM.

`CC#C[C@@H](CC(=O)O)c1ccc(OCc2cccc(CN3CCc4sc(C(=O)NC5CC5)cc4C3)c2)cc1` [Compound 61, (S)-3-(4-((3-((2-(cyclopropylcarbamoyl)-6,7-dihydrothieno[3,2-c]pyridin-5(4H)-yl)methyl)benzyl)oxy)phenyl)hex-4-ynoic acid]: in series [1] (setting [4]), the concentration for a half-maximal effect (EC50) was 12.6 nM.

For the compound `CC#C[C@@H](CC(=O)O)c1ccc(OCc2cccc(CN3CCc4nc(N)sc4C3)c2)cc1` [Compound 38, (S)-3-(4-((3-((2-amino-6,7-dihydrothiazolo[5,4-c]pyridin-5(4H)-yl)methyl)benzyl)oxy)phenyl)hex-4-ynoic acid], in series [1] (setting [4]), the EC50 was determined as 17.8 nM.

Consider `CC#C[C@@H](CC(=O)O)c1ccc(OCc2cccc(CN3CCc4ccccc4C3)c2)cc1` [Compound 15, (S)-3-(4-((3-((3,4-dihydroisoquinolin-2(1H)-yl)methyl)benzyl)oxy)phenyl)hex-4-ynoic acid], for which, in series [1] (setting [4]), the EC50 was determined as 4.6 nM.

With `CC#C[C@@H](CC(=O)O)c1ccc(OCc2cccc(CN3CCc4sc(CC)cc4C3)c2)cc1` [Compound 71, (S)-3-(4-((3-((2-Ethyl-6,7-dihydrothieno[3,2-c]pyridin-5(4H)-yl)methyl)benzyl)oxy)phenyl)hex-4-ynoic acid], in series [1] (setting [4]), the EC50 was 0.4 nM.

Take `CC#C[C@@H](CC(=O)O)c1ccc(OCc2cccc(CN3CCc4ccccc43)c2)cc1` [Compound 24, (S)-3-(4-((3-(Indolin-1-ylmethyl)benzyl)oxy)phenyl)hex-4-ynoic acid]: the EC50 in series [1] (setting [4]) amounted to 0.7 nM.

Turning to `CC#C[C@@H](CC(=O)O)c1ccc(OCc2cccc(CN3CCc4sc(C5CC5)cc4C3)c2)cc1` [Compound 69, (S)-3-(4-((3-((2-Cyclopropyl-6,7-dihydrothieno[3,2-c]pyridin-5(4H)-yl)methyl)benzyl)oxy)phenyl)hex-4-ynoic acid compound with 2,2,2-trifluoroacetic acid], the EC50 in series [1] (setting [4]) is 0.8 nM.

Regarding `CC#C[C@@H](CC(=O)O)c1ccc(OCc2cccc(CN3CCc4sc(C(N)=O)cc4C3)c2)cc1` [Compound 40, (S)-3-(4-((3-((2-carbamoyl-6,7-dihydrothieno[3,2-c]pyridin-5(4H)-yl)methyl)benzyl)oxy)phenyl)hex-4-ynoic acid], in series [1] (setting [4]), the EC50 stood at 8 nM.

For `CC#C[C@@H](CC(=O)O)c1ccc(OCc2cccc(CN3CCc4sc(C(=O)O)cc4C3)c2)cc1` [Compound 35, (S)-5-(3-((4-(1-carboxypent-3-yn-2-yl)phenoxy)methyl)benzyl)-4,5,6,7-tetrahydrothieno[3,2-c]pyridine-2-carboxylic acid], in series [1] (setting [4]), the EC50 was determined as 204 nM.

In series [1] (EC50 in Luciferase assay), `CC#C[C@@H](CC(=O)[O][Ca][O]C(=O)C[C@H](C#CC)c1ccc(OCc2cccc(CN3CCc4ccccc4C3)c2)cc1)c1ccc(OCc2cccc(CN3CCc4ccccc4C3)c2)cc1` [Compound 20, Calcium (S)-3-(4-((3-((3,4-dihydroisoquinolin-2(1H)-yl)methyl)benzyl)oxy)phenyl)hex-4-ynoate] registered an EC50 of 2.7 nM.
